≈ marks a conversion by molar mass, not a printed value. Where only a bound is given, the exact number is not on record here.

The source of these data is patent US8748461B2, “Metalloenzyme inhibitor compounds” (Viamet Pharmaceuticals, Inc., priority 2011, dated 2014).

In experiment [1] the test system is Septoria tritici (ATCC 26517). In words: Minimum Inhibitory Concentration (MIC) vs. Septoria tritici. In kind it is cell-based. The conditions noted are these: Zymoseptoria tritici, ATCC26517, 168 h; 50% reduction in growth of S. tritici; 22° C., seven days; read-out: Septoria Rating (MIC). In a few lines: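 Growth inhibition of S. tritici by CLSI-based filamentous-fungus microdilution, 2-fold series 16 to 0.016 μg/mL in RPMI-1640/MOPS with 2% DMSO. Inoculum approximately 5×10^4 cfu/mL; plates incubated 22° C, seven days, dark, unshaken.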

Experiment [2] deals with Puccinia recondita tritici = Puccinia triticina. In words: Fungicidal activity vs. leaf rust on wheat plants. The conditions noted are these: 50 ppm spray on wheat (Yuma), inoculated the following day, evaluated 7-9 days later; read-out: Puccinia Rating (% Disease Control @ 50 ppm). In kind it is in vivo. The essentials:
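Wheat seedlings were sprayed to wetness with compound at 50 ppm in 10% acetone/Triton X100 water, at about 1500 L/ha. They were inoculated with P. recondita tritici spores the following day and held overnight at high humidity before greenhouse growth. Disease severity was rated 7-9 days later on a rating scale.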

For `OC(Cn1cnnn1)(c1ccc(F)cc1F)C(F)(F)c1ccc(OCc2ccc(C(F)(F)F)cn2)cn1` (centres unmarked) [Compound 114, 2-(2,4-difluorophenyl)-1,1-difluoro-3-(1H-tetrazol-1-yl)-1-(5-((5-(trifluoromethyl)pyridin-2-yl)methoxy)pyridin-2-yl)propan-2-ol], in experiment [1], the minimal inhibitory concentration (MIC) was ≤ 0.5 µg/mL. In experiment [2], the pest or weed control at 50 ppm lay in the range of 80 to 100%.
Turning to `N#Cc1ccc(Oc2ccc(C(F)(F)C(O)(Cn3cnnn3)c3ccc(F)cc3F)nc2)nc1` (centres unmarked) [Compound 93, 6-((6-(2-(2,4-difluorophenyl)-1,1-difluoro-2-hydroxy-3-(1H-tetrazol-1-yl)propyl)pyridin-3-yl)oxy)nicotinonitrile], in experiment [1], the MIC was ≤ 0.5 µg/mL. For the same molecule, the pest or weed control at 50 ppm in experiment [2] was in the range of 80 to 100%.
Take `OC(Cn1cnnn1)(c1ccc(F)cc1F)C(F)(F)c1ccc(Oc2ccccc2)cn1` (centres unmarked) [Compound 11, 2-(2,4-Difluorophenyl)-1,1-difluoro-1-(5-phenoxypyridin-2-yl)-3-(1H-tetrazol-1-yl)propan-2-ol]: in experiment [1], the minimum inhibitory concentration (MIC) was ≤ 0.5 µg/mL. Also, the pest or weed control at 50 ppm in experiment [2] lay within 80 to 100%.
`OC(Cn1cnnn1)(c1ccc(F)cc1F)C(F)(F)c1ccc(OCC(F)c2ccc(OC(F)F)cc2)cn1` (centres unmarked) [Compound 124, 1-(5-(2-(4-(difluoromethoxy)phenyl)-2-fluoroethoxy)pyridin-2-yl)-2-(2,4-difluorophenyl)-1,1-difluoro-3-(1H-tetrazol-1-yl)propan-2-ol]: in experiment [1], the MIC was ≤ 0.5 µg/mL. The pest or weed control at 50 ppm in experiment [2] was in the range of 80 to 100%.
The matching figures for `OC(Cn1cnnn1)(c1ccc(F)cc1F)C(F)(F)c1ccc(OCc2ccc(C(F)(F)F)cc2F)cn1` (centres unmarked) [Compound 24, 2-(2,4-Difluorophenyl)-1,1-difluoro-1-(5-((2-fluoro-4-(trifluoromethyl)benzyl)oxy)pyridin-2-yl)-3-(1H-tetrazol-1-yl)propan-2-ol]: ≤ 0.5 µg/mL and 80 to 100%.
With `CC(Oc1ccc(C(F)(F)C(O)(Cn2cnnn2)c2ccc(F)cc2F)nc1)C(F)(F)F` (centres unmarked) [Compound 47, 2-(2,4-Difluorophenyl)-1,1-difluoro-3-(1H-tetrazol-1-yl)-1-(5-((1,1,1-trifluoropropan-2-yl)oxy)pyridin-2-yl)propan-2-ol], the minimum inhibitory concentration (MIC) in experiment [1] is ≤ 0.5 µg/mL. For the same molecule, in experiment [2], the pest or weed control at 50 ppm fell in the range of 80 to 100%.
The matching figures for `COc1cccc(Oc2ccc(C(F)(F)C(O)(Cn3cnnn3)c3ccc(F)cc3F)nc2)c1` (centres unmarked) [Compound 85, 2-(2,4-Difluorophenyl)-1,1-difluoro-1-(5-(3-methoxyphenoxy)pyridin-2-yl)-3-(1H-tetrazol-1-yl)propan-2-ol]: ≤ 0.5 µg/mL and 80 to 100%.
Consider `OC(Cn1cnnn1)(c1ccc(F)cc1F)C(F)(F)c1ccc(Oc2cccc(F)c2)cn1` (centres unmarked) [Compound 77, 2-(2,4-Difluorophenyl)-1,1-difluoro-1-(5-(3-fluorophenoxy)pyridin-2-yl)-3-(1H-tetrazol-1-yl)propan-2-ol], for which, in experiment [1], the MIC is ≤ 0.5 µg/mL. Moreover, in experiment [2], the pest or weed control at 50 ppm lay within 60 to 79%.
As for `OC(Cn1cnnn1)(c1ccc(F)cc1F)C(F)(F)c1ccc(OCc2ccc(C(F)(F)F)nc2)cn1` (centres unmarked) [Compound 115, 2-(2,4-difluorophenyl)-1,1-difluoro-3-(1H-tetrazol-1-yl)-1-(5-((6-(trifluoromethyl)pyridin-3-yl)methoxy)pyridin-2-yl)propan-2-ol], in experiment [1], the MIC was ≤ 0.5 µg/mL. Moreover, in experiment [2], the pest or weed control at 50 ppm lay within 80 to 100%.
`N#Cc1ccc(COc2ccc(C(F)(F)C(O)(Cn3cnnn3)c3ccc(F)cc3F)nc2)cc1` (centres unmarked) [Compound 9, 4-(((6-(2-(2,4-Difluorophenyl)-1,1-difluoro-2-hydroxy-3-(1H-tetrazol-1-yl)propyl)pyridin-3-yl)oxy)methyl)benzonitrile]: in experiment [1], the minimum inhibitory concentration (MIC) was ≤ 0.5 µg/mL. The pest or weed control at 50 ppm in experiment [2] is 80 to 100%.
The like results for `OC(Cn1cnnn1)(c1ccc(F)cc1F)C(F)(F)c1ccc(OCc2ccc(Cl)cn2)cn1` (centres unmarked) [Compound 113, 1-(5-((5-chloropyridin-2-yl)methoxy)pyridin-2-yl)-2-(2,4-difluorophenyl)-1,1-difluoro-3-(1H-tetrazol-1-yl)propan-2-ol] were, in that order, ≤ 0.5 µg/mL and 80 to 100%.
Take `OC(Cn1cnnn1)(c1ccc(F)cc1F)C(F)(F)c1ccc(Oc2cccc(Cl)c2)cn1` (centres unmarked) [Compound 84, 1-(5-(3-Chlorophenoxy)pyridin-2-yl)-2-(2,4-difluorophenyl)-1,1-difluoro-3-(1H-tetrazol-1-yl)propan-2-ol]: the minimum inhibitory concentration (MIC) in experiment [1] is ≤ 0.5 µg/mL. Moreover, the pest or weed control at 50 ppm in experiment [2] was in the range of 80 to 100%.
On to `OC(Cn1cnnn1)(c1ccc(F)cc1F)C(F)(F)c1ccc(Oc2ncccn2)cn1` (centres unmarked) [Compound 97, 2-(2,4-difluorophenyl)-1,1-difluoro-1-(5-(pyrimidin-2-yloxy)pyridin-2-yl)-3-(1H-tetrazol-1-yl)propan-2-ol], for which, in experiment [1], the MIC was 0.5 to 1.5 µg/mL (≈ 1.12 to 3.35 µM). Also, in experiment [2], the pest or weed control at 50 ppm fell in the range of 80 to 100%.
`N#Cc1ccc(Oc2ccc(C(F)(F)C(O)(Cn3cnnn3)c3ccc(Cl)cc3F)nc2)cc1` (centres unmarked) [Compound 79, 4-((6-(2-(4-Chloro-2-fluorophenyl)-1,1-difluoro-2-hydroxy-3-(1H-tetrazol-1-yl)propyl)pyridin-3-yl)oxy)benzonitrile]: the MIC in experiment [1] was ≤ 0.5 µg/mL. For the same molecule, the pest or weed control at 50 ppm in experiment [2] lay in the range of 80 to 100%.
As for `OC(Cn1cnnn1)(c1ccc(F)cc1F)C(F)(F)c1ccc(OCc2ccc(C(F)(F)F)cc2)cn1` (centres unmarked) [Compound 22, 2-(2,4-Difluorophenyl)-1,1-difluoro-3-(1H-tetrazol-1-yl)-1-(5-((4-(trifluoromethyl)benzyl)oxy)pyridin-2-yl)propan-2-ol], the minimum inhibitory concentration (MIC) in experiment [1] was ≤ 0.5 µg/mL. Moreover, the pest or weed control at 50 ppm in experiment [2] lay in the range of 80 to 100%.
For the molecule `OC(Cn1cnnn1)(c1ccc(F)cc1F)C(F)(F)c1ccc(OCC2CC2)cn1` (centres unmarked) [Compound 39, 1-(5-(Cyclopropylmethoxy)pyridin-2-yl)-2-(2,4-difluorophenyl)-1,1-difluoro-3-(1H-tetrazol-1-yl)propan-2-ol], in experiment [1], the MIC was ≤ 0.5 µg/mL. Further, the pest or weed control at 50 ppm in experiment [2] fell in the range of 80 to 100%.
`OC(Cn1cnnn1)(c1ccc(F)cc1F)C(F)(F)c1ccc(OCc2ccc(OC(F)(F)F)cc2)cn1` (centres unmarked) [Compound 21, 2-(2,4-Difluorophenyl)-1,1-difluoro-3-(1H-tetrazol-1-yl)-1-(5-((4-(trifluoromethoxy)benzyl)oxy)pyridin-2-yl)propan-2-ol]: the MIC in experiment [1] was ≤ 0.5 µg/mL. In addition, the pest or weed control at 50 ppm in experiment [2] was 80 to 100%.
The matching figures for `N#Cc1ccc(F)c(COc2ccc(C(F)(F)C(O)(Cn3cnnn3)c3ccc(F)cc3F)nc2)c1` (centres unmarked) [Compound 59, 3-(((6-(2-(2,4-Difluorophenyl)-1,1-difluoro-2-hydroxy-3-(1H-tetrazol-1-yl)propyl)pyridin-3-yl)oxy)methyl)-4-fluorobenzonitrile]: ≤ 0.5 µg/mL and 80 to 100%.
The matching figures for `OC(Cn1cnnn1)(c1ccc(F)cc1F)C(F)(F)c1ccc(Oc2ccc(Cl)cc2)cn1` (centres unmarked) [Compound 7, 1-(5-(4-Chlorophenoxy)pyridin-2-yl)-2-(2,4-difluorophenyl)-1,1-difluoro-3-(1H-tetrazol-1-yl)propan-2-ol]: ≤ 0.5 µg/mL and 80 to 100%.
Turning to `COc1ccc(C(F)(F)C(O)(Cn2cnnn2)c2ccc(F)cc2F)nc1` (centres unmarked) [Compound 8, 2-(2,4-Difluorophenyl)-1,1-difluoro-1-(5-methoxypyridin-2-yl)-3-(1H-tetrazol-1-yl)propan-2-ol], the minimal inhibitory concentration (MIC) in experiment [1] was in the range of 0.5 to 1.5 µg/mL (≈ 1.3 to 3.91 µM). For the same molecule, in experiment [2], the pest or weed control at 50 ppm was 80 to 100%.
On to `OC(Cn1cnnn1)(c1ccc(F)cc1F)C(F)(F)c1ccc(OCc2cccc(F)c2F)cn1` (centres unmarked) [Compound 23, 1-(5-((2,3-Difluorobenzyl)oxy)pyridin-2-yl)-2-(2,4-difluorophenyl)-1,1-difluoro-3-(1H-tetrazol-1-yl)propan-2-ol], for which the minimum inhibitory concentration (MIC) in experiment [1] was ≤ 0.5 µg/mL. Further, the pest or weed control at 50 ppm in experiment [2] lay within 80 to 100%.
For `N#Cc1cc(Oc2ccc(C(F)(F)C(O)(Cn3cnnn3)c3ccc(F)cc3F)nc2)ccn1` (centres unmarked) [Compound 96, 4-((6-(2-(2,4-difluorophenyl)-1,1-difluoro-2-hydroxy-3-(1H-tetrazol-1-yl)propyl)pyridin-3-yl)oxy)picolinonitrile], the minimal inhibitory concentration (MIC) in experiment [1] was 1.5 to 4 µg/mL (≈ 3.18 to 8.49 µM). In addition, in experiment [2], the pest or weed control at 50 ppm lay within 60 to 79%.
Regarding `OC(Cn1cnnn1)(c1ccc(F)cc1F)C(F)(F)c1ccc(OCC(F)(F)c2ccc(Cl)cc2)cn1` (centres unmarked) [Compound 122, 1-(5-(2-(4-chlorophenyl)-2,2-difluoroethoxy)pyridin-2-yl)-2-(2,4-difluorophenyl)-1,1-difluoro-3-(1H-tetrazol-1-yl)propan-2-ol], the MIC in experiment [1] is ≤ 0.5 µg/mL. Also, the pest or weed control at 50 ppm in experiment [2] was 80 to 100%.
For the molecule `N#Cc1cc(COc2ccc(C(F)(F)C(O)(Cn3cnnn3)c3ccc(F)cc3F)nc2)ccc1F` (centres unmarked) [Compound 65, 5-(((6-(2-(2,4-Difluorophenyl)-1,1-difluoro-2-hydroxy-3-(1H-tetrazol-1-yl)propyl)pyridin-3-yl)oxy)methyl)-2-fluorobenzonitrile], the minimal inhibitory concentration (MIC) in experiment [1] was ≤ 0.5 µg/mL. In addition, in experiment [2], the pest or weed control at 50 ppm was in the range of 80 to 100%.
As to `OC(Cn1cnnn1)(c1ccc(F)cc1F)C(F)(F)c1ccc(OCc2ccc(Cl)nc2)cn1` (centres unmarked) [Compound 116, 1-(5-((6-chloropyridin-3-yl)methoxy)pyridin-2-yl)-2-(2,4-difluorophenyl)-1,1-difluoro-3-(1H-tetrazol-1-yl)propan-2-ol], in experiment [1], the MIC was ≤ 0.5 µg/mL. For the same molecule, in experiment [2], the pest or weed control at 50 ppm was in the range of 80 to 100%.
